Consider three compounds from paper PMC6982022 (International Journal of Molecular Sciences, 2019).

For orientation: Cmax means the peak of the concentration-time curve. A word on the t½: it is the time in which the quantity being followed falls by half. By IC50 is commonly meant the point on the concentration scale where inhibition reaches its midpoint.

SMILES strings stand for the structures. Read-outs that look alike come from different tables or passages of the source.

Details of data set [1]: method as in PMID 17624027. The following applies: male and female CD rats, oral [3H]-NB-DNJ 160 mg/kg, cited from earlier work.
Another data set has as its system male CD rats. As to the kind of experiment: Rat mating trial (fertility). The data set is classed as in vivo. The conditions noted are these: 15 mg/kg/day oral, 35 days; data not presented. As to the method:
Eighteen adult male CD rats were divided into three groups of six rats each. One group of six CD rats was treated with vehicle (distilled water containing 0.9% benzyl alcohol) via oral gavage (5 mL/kg/day), and the second group (6 rats) was treated with NB-DGJ (in distilled water containing 0.9% benzyl alcohol) via oral gavage at 150 mg/kg/day (in approximately 5 mL/kg of water) daily for 35 consecutive days. The third group (6 rats) was treated with 15 mg/kg NB-DNJ in distilled water containing 0.9% benzyl alcohol) via oral gavage (in approximately 5 mL/kg of water) daily for 35 consecutive days (Figure S5).
Rats were weighed on day 0 (first day of dosing) and weekly thereafter. Dosages were adjusted based on the most recent body weight. Males were cohabited with untreated females (one male per two females) weekly at weeks 1 through 9 [38, 39]. Females were necropsied seven days after separation from males to determine the numbers of implantation sites. Individual male rats were bled from the tail vein at weeks 0, 1, 4, and 7 and serum was harvested by centrifugation. At week 11, the male rats were weighed, anesthetized, and exsanguinated. Sera were analyzed for inhibin B by ELISA (enzyme-linked immunosorbent assay), and rat follicle stimulating hormone (rFSH) and testosterone by radioimmunoassay. Testes, epididymides, ventral prostates, and seminal vesicles were excised and weighed. The left testis was homogenized, and spermatid head counts obtained.
Statistical analysis using the Student’s t-test was performed on body weights, paired testes weights, ventral prostrate weights, seminal vesicle weights, paired epididymal weights, spermatid head counts, percent motile and normal epididymal sperm. We used analysis of variance (ANOVA) for serum inhibin B, rFSH, and testosterone, since these measurements were repeated throughout the study period. The effect of NB-DNJ at 15 mg/kg/day dose in the rat model was studied following the same protocol as that for NB-DGJ.

The subject of the next data set is C57BL/6 mice. The conditions noted are these: cited from earlier work.
Data set [2] relates to C57BL6J mice. As to the kind of experiment: Epididymal sperm acrosome morphology (FITC-PSA staining) after 35 days oral dosing. The conditions noted are these: 15, 25 and 50 mg/kg oral daily. It counts as in vivo, mouse. The method, then:
(§1) Groups of six mice, each, were used for three different doses of NB-DNJ or NB-DGJ formulated in milliQ water at 50 mg/kg, 25 mg/kg and 15 mg/kg, respectively. Control groups were given an equivalent volume of water. Animals were given compound or control once daily for 35 consecutive days via oral gavage using animal feeding needles (Biomedical Needles, Popper, NY, USA). Body weight was noted every week for all treatment groups. Mice were euthanized at the end of a 35 days dosing regimen using CO2 asphyxia followed by cervical dislocation. Testes were harvested, weighed and stored in Bouin’s fixative for 48 h, then sliced into two halves, and stored in fresh Bouin’s for another 24 h. The tissue slices were then rinsed in 70% ethanol and processed and stained for histology using a standard protocol for Hematoxylin and eosin staining. Spermatids with elongated and abnormally shaped heads were counted per 20 fields and average number calculated for 6 mice/group.
For sperm retrieval, epididymis was removed from the animal and placed in Petri dish. One mL of capacitation buffer (Capacitation buffer consisted of 110 mM NaCl, 2.68 mM KCl, 0.36 mM NaH2PO4, 25 mM NaHCO3, 0.49 mM MgCl2, 2.40 mM CaCl2, 25 mM HEPES, 5.50 mM Glucose, 1 mM Pyruvic acid, pH 7.4; Tash and Bracho, 1998) at room temperature was added to the dish. Using forceps, the caput of the epididymis was held in place and the cauda sliced repeatedly with a razor blade. The spermatozoa were allowed to disperse for 15 min with gentle swirling intermittently. A 100 µL aliquot of the sperm suspension was dropped onto a standard glass microscope slide (Fisherbrand superfrost microscope slides 25 × 75 × 1.0 mm)) and smeared with side of pipette tip. The slides were air dried flat for 1 h at room temperature. The sperm smear was fixed in methanol for 2 min. The sperm smear was than stained using FITC-PSA (Fluorescein isothiocyanate Pisum Sativum Agglutinin; Vector Laboratories, Burlingame, CA) was diluted 1:7000 in PBS containing 1:10,000 DAPI dihydrochloride, FluoroPure™ grade, Invitrogen) (≥98% pure) to make the stock solution. To each slide, 100 µL of FITC-PSA was added and spread out with edge of pipette tip to cover the dried sperm smear. The slides were incubated at 37 °C for 10 min, and then washed with 5 changes of PBS for 5 min each. The slides were air-dried and mounted with 20 µL Vectashield mounting medium for fluorescence (Vector Laboratories, Burlingame, CA, USA) and observed. Slides were viewed on a Nikon IX-81 microscope under a 40× objective using FITC and DAPI filter to visualize acrosome morphology. The phase contrast images were also collected at the same magnification to compare morphological details.

The test system of the next data set is human subjects. Also on record: method as in PMID 17067996, PMID 10801168, PMID 7905523. The conditions noted are these: ref 25, 26, 27; cited from earlier work.
Data set [3] concerns C57BL6J mice. Briefly: Testis histology (H&E) after 35 days oral dosing. The data set is classed as in vivo, mouse. The conditions noted are these: 15, 25 or 50 mg/kg, oral daily. As to the method: as §1
A further data set has as its system rodent model of diabetes. Also on record: method as in PMID 20000679. The following applies: ref 36; cited from earlier work.
The next data set deals with GBA2. The conditions noted are these: ref 15; cited from earlier work.
Where [4] appears, read: C57BL/6 mice, daily oral 15 mg/kg.

As for `CCCCN1C[C@H](O)[C@@H](O)[C@H](O)[C@H]1CO` [NB-DNJ, N-butyldeoxynojirimycin], in data set [1], the Cmax was 13,800 ng/mL, the tmax is listed as 0.5 h and the t½ was 4.5 h. In data set [1] (read-out: Cmax in molar units), the Cmax was approximately 63 µM. Besides, the “Effect on fertility in mating trial (in words)” value with male CD rats is “did not show effect on fertility by week 6”. Besides, in the data set with C57BL/6 mice (C57BL/6 mice, 15 mg/kg), the “Time to return of fertility after cessation” value is listed as “three weeks”. In addition, in the data set with C57BL/6 mice (setting [4]), the “Effect on fertility (in words)” value is given as “Reversible inhibition of fertility” and the “Time of daily dosing until inhibition of fertility was observed” value was “three weeks”. Also, the “Strain/species specificity of male contraceptive activity (in words)” value in the data set with C57BL/6 mice (ref 24) was “only effective as a male contraceptive in C57BL/6 and C57BL/6-related mice”. Further, in the data set on C57BL6J mice [2], the “Sperm acrosome morphology (in words)” value is on record as “abnormal acrosome in all spermatozoa”. Moreover, the “Effect in human subjects (sperm counts, semen parameters)” value in the data set with human subjects is “no effect”. In addition, the “Testis histology, spermatid heads (in words)” value in the data set on C57BL6J mice [3] is “rounded, abnormally shaped spermatid heads”.
`OC[C@@H]1[C@@H](O)[C@H](O)[C@@H](O)CN1CCCCCOCC12CC3CC(CC(C3)C1)C2`: the “Control of hyperglycemia (in words)” value in the data set with rodent model of diabetes was “potently control hyperglycemia”.
For `OC[C@@H]1[C@H](O)[C@H](O)[C@@H](O)CN1CCCCCOCC12CC3CC(CC(C3)C1)C2`, the IC50 in the data set on GBA2 is […].
